≈ marks a conversion by molar mass, not a printed value.
Columns and labels:
[1] = molecular target: T1, murine SR-BI with the C384S mutation (Mus musculus, UniProt Q61009, C384S); test: Mutant SR-BI cholesterol efflux assay; assay type: cell-based; conditions: Cys384 converted to serine
T1 construct: expressed in transfected cells; host or cells: CHO cell line lacking LDL receptors, overexpressing C384S SR-BI
T1 sequence (Q61009 1-509 C384S): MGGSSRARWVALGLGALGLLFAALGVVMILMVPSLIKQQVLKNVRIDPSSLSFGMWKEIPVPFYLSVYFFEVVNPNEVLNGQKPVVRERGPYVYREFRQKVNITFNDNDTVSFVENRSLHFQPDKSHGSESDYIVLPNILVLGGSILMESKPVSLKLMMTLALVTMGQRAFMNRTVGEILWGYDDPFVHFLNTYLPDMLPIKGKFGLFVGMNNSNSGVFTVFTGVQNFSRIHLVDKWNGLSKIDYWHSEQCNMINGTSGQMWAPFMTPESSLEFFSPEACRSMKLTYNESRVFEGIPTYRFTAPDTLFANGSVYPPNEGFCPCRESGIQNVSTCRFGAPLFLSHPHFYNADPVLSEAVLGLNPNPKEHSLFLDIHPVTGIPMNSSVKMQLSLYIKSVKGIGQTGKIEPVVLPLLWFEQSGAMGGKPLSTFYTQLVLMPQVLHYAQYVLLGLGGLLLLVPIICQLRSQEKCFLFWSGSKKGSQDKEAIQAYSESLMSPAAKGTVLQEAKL
Method: Mutant SR-BI Cholesterol Efflux Assay (SA 10: AID Nos. 588843, 602138)
BLT-1 is known to interact at cysteine 384 of SR-BI (16). […] This assay is used to determine if the compounds work in a similar fashion to BLT-1 and require Cys384 to alter the efflux of FC to HDL.
On Day 0, 50,000 cells expressing murine SR-BI with the C384S mutation per well were plated in 24-well plates. On the following day, the media was removed and [^3H]cholesterol in lipoprotein-deficient media was added. On Day 1, the medium was replaced with Ham's F12 medium supplemented with 10% bovine lipoprotein deficient serum, 1 μCi/ml [1,2-^3H]cholesterol (40-60 Ci/mmol). On Day 3, the cells were washed to remove serum and incubated in Ham's F12 plus 1% fatty acid-free BSA. On Day 4, the cells were washed and pretreated with compounds for 1 hour. Subsequently, the cells were incubated for an additional 2 hours with the same concentrations of small molecules and with unlabeled HDL (final HDL concentration of 100 μg protein/ml). […] The amount of [^3H]cholesterol in the medium and within cells was determined using liquid scintillation counting. Total cellular [^3H]cholesterol was calculated as the sum of the radioactivity in the efflux medium plus the radioactivity in the cells and was used to calculate the [^3H]cholesterol efflux (percent of total [^3H]cholesterol released into the medium).

hepatitis C virus (HCV) = test: In vitro testing with Huh-7.5 cells infected with HCV; assay type: cell-based; conditions: for inhibition of HCV replication (in words): Huh-7.5 cells infected with Jcl 378-1 TagRFP (MOI=0.1), 3 dpi
Method: A series of tests were conducted using the compound of Formula II (CID53393835/ML279), other known inhibitors of SR-BI and controls with cells infected with hepatitis C virus (HCV). The cells (Huh-7.5 cells infected with Jcl 378-1 TagRFP (MOI=0.1) 3 dpi) were treated with the following SR-BI compounds and controls:
Three different infection protocols were followed: (1) no wash—virus inoculum was removed 4hpi and fresh medium containing compounds added without washing cells; (2) 5× wash—virus inoculum was removed 4hpi, cells were washed 5× with PBS and fresh medium containing compounds added; and (3) no wash Opt—infection were performed in serum-free OptiMem; virus inoculum was removed 4hpi and fresh medium containing compounds added without washing cells. FIG. 90 provides a comparison of the three different infection set-ups. FIG. 91 provides a comparison of two independent experiments.

[2] = Cell cytotoxicity assay (CellTiter-Glo); conditions: Chinese hamster, ldlA[mSR-BI] cells
Method: It is possible that a compound will cause cells to decrease HDL-mediated DiI uptake due to nonspecific consequences of cellular toxicity, representing a second class of false positive hits. The cells were treated with compounds for 3 hours or 24 hours, and then cell viability was measured using the CellTiter-Glo Assay (Promega), a luciferase-based reagent that measures cellular ATP levels. The compounds were tested at different concentrations to determine IC50 values. […] Data were normalized against DMSO and the positive control (1 μM BLT-1) in Genedata Assay Analyzer.
All available dry powder samples of the remaining, non-quenching compounds were procured from commercial sources and purities were determined. The compounds obtained were then retested in the primary assay and in cytotoxicity assays. We wanted to rule out any compounds that were cytotoxic, especially in the 3-hour time span of the primary DiI-HDL uptake assay. Therefore, compounds were tested in ldl[mSR-BI] cells for cytotoxicity at 3 hours and 24 hours using the CellTiter-Glo assay (Promega) that measures cellular ATP as a marker of cell viability. […] Compounds were screened for inhibition of endocytosis using labeled transferrin, which is known to bind the transferrin receptor, enter cells by clathrin-mediated endocytosis, and move to endosomes before being recycled to the cell surface.

Solubility in PBS = assay type: physicochemical; conditions: PBS pH 7.4, 23° C., 1% DMSO
Method: (§1) We noticed that the concentration of the probe fluctuated through the course of the assay (data not shown). We believe that this fluctuation is due to the low kinetic solubility of the probe. Thus, we decided to determine the amount of undissolved probe present in the well after it was treated with PBS for a given length of time, relative to the amount of undissolved probe at the start of the assay. The wells were centrifuged and the supernatant was removed after various time points, then acetonitrile was added to dissolve the remaining solid in the wells, and the amount of probe was quantified. […] The stability of the probe was confirmed by measuring stability in human plasma, with >99% remaining after a 5-hour incubation period. […] FIG. 5 summarizes known properties of the probe.

[3] = Stability in human plasma; assay type: in vitro ADME; conditions: 5-hour incubation
Method: as §1

Stability to GSH = assay type: physicochemical
Text: Probe 2 (ML279) can potentially act as an electrophile under biological conditions, with its tetrazole alpha to the western amide.

Compound | efflux of cholesterol in C384S mutant background (in words) [1] | inhibition of HCV replication (in words) (hepatitis C virus (HCV); listed as 8) | inhibition of HCV replication (in words) (hepatitis C virus (HCV); listed as SRB1-8) | mean fluorescence intensity (MFI) of HCV positive cells (in words) (hepatitis C virus (HCV); dose dependence) | EC50 at 24 h [2] | IC50 at 24 h [2] | solubility (Solubility in PBS; listed as CID53393835) | solubility (Solubility in PBS; phosphate buffered saline, 23 °C, pH 7.4, aqueous buffer, kinetic from dmso stock) | stability in human plasma, remaining [3] | stability to GSH (in words) (Stability to GSH) | inhibition of HCV replication (in words) (hepatitis C virus (HCV); listed as 5) | inhibition of HCV replication (in words) (hepatitis C virus (HCV); listed as SRB1-5) | inhibition of virus assembly/egress (in words) (hepatitis C virus (HCV); fluorescence intensity of HCV positive cells normalized to DMSO)
CCCCCCC1CCCC1=NNC(N)=S (centres unmarked) [BLT-1, reference compound] | cannot reduce uptake of HDL or efflux of cholesterol | able to inhibit HCV replication | inhibited viral replication | increased mean fluorescence intensity (MFI) of HCV positive cells in a dose dependent manner |  |  |  |  |  |  |  |  | 
C[C@H](C(=O)NC1CCCC1)N(C(=O)Cn1nnc(-c2ccc3c(c2)OCO3)n1)C1CCCCC1 [ML279, (R)-2-(2-(5-(Benzo[d][1,3]dioxol-5-yl)-2H-tetrazol-2-yl)-N-cyclohexylacetamido)-N-cyclopentylpropanamide] | can reduce uptake and efflux in the mutant background |  |  |  | > 35 µM | > 35 µM | 27 µM (≈ 12.7 µg/mL) | 28 µM (≈ 13.1 µg/mL) | > 99% | stable to GSH | able to inhibit HCV replication | inhibited viral replication | can also inhibit virus assembly/egress
